Earlier results as cited in US7780990B2, “Combination therapeutic compositions and method of use” (priority 2005, dated 2010).

Settings: intravenous infusion 30 g over 30 min, patients with type II diabetes

SMILES: C[N+](C)(C)CC(=O)O [betaine, glycine betaine]
- blood pressure: reduces blood pressure
- haemodynamic functions: improves haemodynamic functions
